Experimental data taken from patent publication US9144591B2, “Transcription modulator compositions” (Academia Sinica, priority 2006, dated 2015).

Key:
[1] = tested on: androgen-responsive promoter activity in 22RvPSA36-103 cells; assay: Luciferase assay, inhibition of androgen-induced androgen-responsive promoter activity; assay type: cell-based, human; settings: 20 hours
Protocol: (§1) For luciferase activity assays, 8×10^4 22Rvl-derived cells were grown in 48-well multi-well plates. The cell culture medium was RPMI containing 5% charcoal coated dextran stripped fetal bovine serum (Hyclone). After the cells were grown for one day in culture, their growth medium was exchanged to include experimental or control compositions, as described below, and cell growth was continued for a further 20 hours. Cells were lysed by the addition of passive lysis buffer (Promega), then luciferase assays were performed using a luciferase assay system (Promega) and VICTOR^2 multilabel counter (PerkinElmer), and normalized to lysate protein as measured by a Coomassie (Bradford) Protein Assay Kit (Pierce).
The ability of the IKK inhibitors 15-deoxy-Δ^12,14-prostaglandin J2, prostaglandin A1, and wedelolactone to inhibit androgen-responsive promoter activity was tested using the above-described luciferase assay.
A tet operon-regulated H1-small hairpin RNA expression cassette was constructed and inserted into the pcDNA6tTR™ plasmid from Invitrogen (Carlsbad, Calif.). Each knockdown plasmid was transfected into 22RvPSA36-103 cells to produce stably transfected cell lines. The knockdown of IKKα or IKKβ in daughter cell lines was determined by immunoblotting. […] To induce RNAi-mediated knockdown, cells were grown in medium containing 1 μg/ml doxycycline as compared to vehicle control for 3 days. Subsequent treatment and assays were performed according to the procedure of the aforementioned luciferase assays.

22Rv1 cells = assay: Colony forming efficiency, crystal violet OD595, 22Rv1 cells; assay type: cell-based, human; settings: 6 days, plus androgen
22RvPSA36-103 cells = assay: Colony forming efficiency, crystal violet OD595, 22RvPSA36-103 cells; assay type: cell-based, human; settings: 6 days, plus androgen
Protocol: Given that activation of the AR signaling pathway stimulates prostate cancer cell proliferation and our finding that IKKα is implicated in this pathway, we sought to determine if IKKα inhibition would reduce prostate cancer cell proliferation. To this end, the colony forming efficiency of 22Rv1 cells and 22RvPSA36-103 cells in the presence of an androgen plus or minus an IKK inhibitor was determined by growing 2×10^4 cells in 12-well multi-well plates for 6 days. The growth medium was replaced every three days. At the end of the growth period, cell colonies were stained with 0.1% crystal violet in phosphate buffer saline, dried, and photographed. Cellular retention of crystal violet was extracted with 20% acetic acid in water and measured at OD595 as a quantitative indicator of colony forming efficiency.

[2] = tested on: PSA promoter (androgen-responsive promoter) in 22RvPSA36-103 cells; assay: PSA-luciferase reporter assay, induction by steroid hormones; assay type: cell-based, human; settings: 20 hours; for PSA-luciferase activity stimulation: 10 nM, dose dependent, maximum
Protocol: The 22Rvl cell line was purchased from ATCC. Reporter plasmid (p5.7 kb-PSA-Luc) was constructed by inserting the 5.7 kb PSA promoter into pGL3 plasmid (Promega).
as §1
The AR signaling pathway promotes the development of prostate cancer. Thus, we established a cell-based model to observe androgen-responsive promoter activity in human prostate cancer cells. […] 22RvPSA36-103 cells were incubated for 20 hours in the presence of an androgen.

[3] = tested on: AR in a complex with IKKα; settings: 10 nM, five minutes, 22Rv/PSA36-103 cells
Description: We investigated if IKKα or IKKβ could interact with activated AR in 22Rv/PSA36-103 cells after androgen stimulation.

COc1cc(O)c2c(c1)oc(=O)c1c3cc(O)c(O)cc3oc21 [wedelolactone]
Inhibition of 5α-dihydrotestosterone-induced luciferase expression [1]: inhibited 5α-dihydrotestosterone-induced luciferase expression in a dose-dependent manner
Inhibition of androgen-stimulated colony growth (22Rv1 cells): highly effective
Inhibition of androgen-stimulated colony growth (22RvPSA36-103 cells): highly effective

CCCCC[C@H](O)/C=C/[C@H]1C=CC(=O)[C@@H]1CCCCCCC(=O)O [prostaglandin A1]
Inhibition of 5α-dihydrotestosterone-induced luciferase expression [1]: inhibited 5α-dihydrotestosterone-induced luciferase expression in a dose-dependent manner

C[C@]12CCC(=O)C[C@@H]1CC[C@@H]1[C@@H]2CC[C@]2(C)[C@@H](O)CC[C@@H]12 [5α-dihydrotestosterone]
PSA-luciferase activity stimulation [2]: approximately 100 fold over baseline
Co-immunoprecipitation of the AR in a complex with IKKα [3]: detected

CC(=O)[C@H]1CC[C@H]2[C@@H]3CCC4=CC(=O)CC[C@]4(C)[C@H]3CC[C@]12C [progesterone]
Induction of PSA-luciferase expression [2]: failed to induce PSA-luciferase expression

C[C@]12CC[C@@H]3c4ccc(O)cc4CC[C@H]3[C@@H]1CC[C@@H]2O [17-β-estradiol]
Induction of PSA-luciferase expression [2]: failed to induce PSA-luciferase expression

C[C@]12CC[C@H]3[C@@H](CCC4=CC(=O)CC[C@@]43C)[C@@H]1CC[C@@H]2O [testosterone]
PSA-luciferase activity stimulation [2]: approximately 100 fold over baseline

CCCCC/C=C/C=C1/C(=O)C=C[C@@H]1C/C=C\CCCC(=O)O [15-deoxy-Δ^12,14-prostaglandin J2]
Inhibition of 5α-dihydrotestosterone-induced luciferase expression [1]: inhibited 5α-dihydrotestosterone-induced luciferase expression in a dose-dependent manner
